Measured values reported in ChEMBL document CHEMBL1201862, “PubChem BioAssay data set” (2004).
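Cultured in 96-well plates, cells were exposed to test compound for 48 hours across five concentrations. Here, GI50 denotes the concentration required for 50% inhibition of growth.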 Calls of active or inactive are those of the source. Rule as the data show it: active = GI50 up to about 1.1 µM and inactive = higher.

What was measured:
Test in all cases: NCI anticancer screen, dose series, 48 h
A498 = system: A498
TK-10 = system: TK-10
HT-29 = system: HT-29
K562 = system: K562
786-0 = system: 786-0
MDA-MB-231 = system: MDA-MB-231
SK-MEL-28 = system: SK-MEL-28
Malme-3M = system: Malme-3M
HCT-116 = system: HCT-116
IGROV-1 = system: IGROV-1
NCI-H460 = system: NCI-H460
SK-MEL-5 = system: SK-MEL-5
MDA-MB-435 = system: MDA-MB-435
NCI/ADR-RES = system: NCI/ADR-RES
NCI-H226 = system: NCI-H226
CCRF-CEM = system: CCRF-CEM
U-251 = system: U-251
T47D = system: T47D
MOLT-4 = system: MOLT-4
KM-20L2 = system: KM-20L2

Measured: GI50

CCN1CCC(O)(/C=C/c2ccc(C)cc2C)C(C(=O)/C=C/c2ccc(C)cc2C)C1 (configuration not stated)
inactive: A498 9.59 µM | TK-10 1.64 µM | HT-29 2.16 µM | K562 3.13 µM | 786-0 1.71 µM | MDA-MB-231 2.23 µM | SK-MEL-28 4.7 µM | Malme-3M 5.82 µM | HCT-116 2.22 µM | IGROV-1 2.89 µM | NCI-H460 1.35 µM | SK-MEL-5 3.04 µM | MDA-MB-435 2.51 µM | NCI/ADR-RES 2.46 µM | NCI-H226 2.77 µM | CCRF-CEM 1.82 µM | U-251 3.39 µM | T47D 2.39 µM | MOLT-4 1.28 µM

O=c1[nH]nc(-c2ccc([N+](=O)[O-])cc2)n1/N=C/c1ccc([N+](=O)[O-])cc1
inactive: A498 > 100 µM | TK-10 > 100 µM | HT-29 74 µM | K562 43.7 µM | 786-0 78.7 µM | MDA-MB-231 > 100 µM | SK-MEL-28 > 100 µM | Malme-3M > 100 µM | HCT-116 > 100 µM | IGROV-1 > 100 µM | NCI-H460 30.4 µM | SK-MEL-5 48.4 µM | MDA-MB-435 99.5 µM | NCI/ADR-RES 64.7 µM | NCI-H226 > 100 µM | CCRF-CEM 45 µM | U-251 71.4 µM | T47D > 100 µM | MOLT-4 23.6 µM

COc1ccc2[nH]cc(C(=O)C(=O)NC34CC5CC(CC(C5)C3)C4)c2c1
inactive: A498 43.8 µM | TK-10 48.8 µM | HT-29 2.08 µM | K562 4.44 µM | 786-0 8.09 µM | MDA-MB-231 40.1 µM | SK-MEL-28 15.4 µM | Malme-3M 46.9 µM | HCT-116 20.6 µM | IGROV-1 58.3 µM | NCI-H460 7.31 µM | SK-MEL-5 32.2 µM | MDA-MB-435 41.3 µM | NCI/ADR-RES 55.2 µM | NCI-H226 22.9 µM | CCRF-CEM 9.48 µM | U-251 13.5 µM | T47D 54.1 µM | MOLT-4 2.66 µM

CCOC(=O)c1oc2c(OC)ccc3c2c1CCC3
inactive: A498 > 100 µM | TK-10 > 100 µM | HT-29 37.7 µM | K562 66.8 µM | 786-0 > 100 µM | SK-MEL-28 > 100 µM | Malme-3M > 100 µM | IGROV-1 > 100 µM | KM-20L2 > 100 µM | NCI-H460 > 100 µM | SK-MEL-5 > 100 µM | CCRF-CEM 73.3 µM | U-251 > 100 µM | MOLT-4 37.1 µM

O=[N+]([O-])c1ccc2[nH]nc(OCc3ccccn3)c2c1
inactive: A498 > 100 µM | TK-10 47.2 µM | HT-29 > 100 µM | K562 > 100 µM | 786-0 > 100 µM | MDA-MB-231 > 100 µM | SK-MEL-28 > 100 µM | Malme-3M > 100 µM | HCT-116 > 100 µM | IGROV-1 > 100 µM | NCI-H460 > 100 µM | SK-MEL-5 > 100 µM | MDA-MB-435 > 100 µM | NCI/ADR-RES > 100 µM | NCI-H226 > 100 µM | CCRF-CEM > 100 µM | U-251 99.8 µM | T47D 47 µM | MOLT-4 > 100 µM

CCOC(=O)C1S/C(=N\c2ccccc2)N=C1C (configuration not stated)
inactive: A498 > 100 µM | TK-10 > 100 µM | HT-29 30.3 µM | K562 40.7 µM | 786-0 77.8 µM | SK-MEL-28 > 100 µM | Malme-3M > 100 µM | HCT-116 > 100 µM | IGROV-1 > 100 µM | KM-20L2 55.7 µM | NCI-H460 79.1 µM | NCI-H226 74 µM | U-251 > 100 µM | MOLT-4 38.2 µM

NC(C(=O)O)c1ccc(C(=O)O)cc1 (configuration not stated)
inactive: TK-10 > 100 µM | HT-29 > 100 µM | K562 > 100 µM | 786-0 > 100 µM | SK-MEL-28 > 100 µM | Malme-3M > 100 µM | IGROV-1 > 100 µM | KM-20L2 > 100 µM | NCI-H460 > 100 µM | SK-MEL-5 > 100 µM | NCI-H226 > 100 µM | CCRF-CEM > 100 µM | U-251 > 100 µM | MOLT-4 > 100 µM

CN(C)CCCNc1c2ccccc2[n+]([O-])c2ccccc12
inactive: A498 54.8 µM | TK-10 31.9 µM | HT-29 7.06 µM | K562 31.4 µM | 786-0 40.6 µM | MDA-MB-231 63.4 µM | SK-MEL-28 > 100 µM | Malme-3M 76.7 µM | HCT-116 34 µM | IGROV-1 37.3 µM | NCI-H460 27.5 µM | SK-MEL-5 40.1 µM | MDA-MB-435 50.8 µM | NCI/ADR-RES > 100 µM | NCI-H226 22 µM | CCRF-CEM 62.1 µM | U-251 62.8 µM | T47D 78 µM | MOLT-4 42.4 µM
